# Results: publication PMC2990587, “Central nervous system penetration and enhancement of temozolomide activity in childhood medulloblastoma models by poly(ADP-ribose) polymerase inhibitor AG-014699” (British Journal of Cancer, 2010)
# Columns and labels:
# D425Med xenografts = assay: Tumour growth inhibition in vivo, D425Med xenografts; parameters: species or system mouse
# Text: (§1) All of the in vivo experiments were reviewed and approved by the relevant institutional animal welfare committees, and performed according to national law. Female athymic nude mice (CD1 nu/nu; Charles River, Margate, UK) used for anti-tumour studies were maintained and handled in isolators under specific pathogen-free conditions. […], […] and […] (1 × 10^7 exponentially growing cells per mouse, harvested and implanted in growth media) xenografts were established by sub-cutaneous implantation into CD-1 nude mice. […] Treatment was initiated when sufficient number of mice had established tumours to allow randomisation into treatment groups: day 17 for […], day 26 for […] and day 32 for […]. […] For drug combinations, AG-014699 was administered immediately after administering temozolomide. […] Tumour growth delay (TGD) is defined as the time to RTV4 in drug-treated mice compared with the time to RTV4 in control (vehicle alone) mice. Median tumour volume is shown, rather than the mean, as this is generally accepted as the most statistically reliable representation of the average growth rate of tumours in a small group of mice, if a normal distribution of tumour volumes cannot be assumed. Tumour growth delay was calculated as: median time to RTV4 in treated group-median time to RTV4 in control group.
# PARP-1 = PARP-1 (Homo sapiens, UniProt P09874); assay: PARP activity in permeabilised D283Med cells (10H anti-PAR immunoassay); format: cell-based
# Experimental: Inhibition of PARP activity in 5000 exponentially growing D283Med cells was measured following treatment with a range of AG-014699 concentrations (0–1 μM), in comparison with DMSO-only controls. Maximally stimulated PARP activity was measured in replicate samples (n⩾3) of permeabilised cells by immunological detection of the amount of poly(ADP-ribose) (PAR) formed, using 10H anti-PAR antibody, during a 6-min incubation with NAD^+ and oligonucleotide (substrate and activator) by reference to a PAR (Biomol Research Labs, Plymouth, PA, USA) standard curve using a GCLP-validated assay described previously ([Plummer et al, 2005]).
# D384Med xenografts = assay: Tumour growth inhibition in vivo, D384Med xenografts; parameters: species or system mouse
# Text: as §1
# PARP-1, sequence (P09874 whole entry): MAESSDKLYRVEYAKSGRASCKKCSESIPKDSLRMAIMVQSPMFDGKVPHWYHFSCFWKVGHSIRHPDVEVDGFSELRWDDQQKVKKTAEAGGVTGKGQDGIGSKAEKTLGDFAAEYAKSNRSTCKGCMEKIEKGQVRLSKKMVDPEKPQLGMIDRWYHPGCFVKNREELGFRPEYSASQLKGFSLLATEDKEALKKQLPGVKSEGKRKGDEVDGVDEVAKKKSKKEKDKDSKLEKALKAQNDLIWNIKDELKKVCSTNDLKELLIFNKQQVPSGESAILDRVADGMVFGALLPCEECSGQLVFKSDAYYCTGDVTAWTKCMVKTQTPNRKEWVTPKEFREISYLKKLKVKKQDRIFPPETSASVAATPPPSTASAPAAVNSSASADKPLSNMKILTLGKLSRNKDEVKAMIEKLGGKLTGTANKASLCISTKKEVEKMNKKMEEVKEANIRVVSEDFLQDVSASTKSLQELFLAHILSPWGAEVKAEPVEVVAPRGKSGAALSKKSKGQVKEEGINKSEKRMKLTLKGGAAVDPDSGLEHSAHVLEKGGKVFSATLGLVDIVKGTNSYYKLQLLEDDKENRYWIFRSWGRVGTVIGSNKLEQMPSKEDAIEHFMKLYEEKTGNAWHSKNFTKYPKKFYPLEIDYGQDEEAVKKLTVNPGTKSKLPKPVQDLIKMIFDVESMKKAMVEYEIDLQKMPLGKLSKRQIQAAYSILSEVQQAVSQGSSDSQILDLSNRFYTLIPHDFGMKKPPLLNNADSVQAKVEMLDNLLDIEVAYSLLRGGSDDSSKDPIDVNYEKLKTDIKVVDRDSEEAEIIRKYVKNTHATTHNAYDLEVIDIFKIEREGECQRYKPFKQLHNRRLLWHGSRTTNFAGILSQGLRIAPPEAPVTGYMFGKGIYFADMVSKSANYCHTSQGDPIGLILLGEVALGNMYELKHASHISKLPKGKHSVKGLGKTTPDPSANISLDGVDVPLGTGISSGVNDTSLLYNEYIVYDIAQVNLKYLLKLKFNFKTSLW
smiles,measurement,setting,value
CNCc1ccc(-c2[nH]c3cc(F)cc4c3c2CCNC4=O)cc1 [AG-014699],Median nadir body weight (% starting weight),"D425Med xenografts; D425Med-bearing mice, daily x5, TMZ 68 mg kg−1 p.o., AG-014699 1 mg kg−1 i.p.",98 % starting weight
same,Median time to RTV4,"D425Med xenografts; D425Med, daily x5, TMZ 68 mg kg−1 p.o., AG-014699 1 mg kg−1 i.p.",15.5 days
same,Complete regressions,"D425Med xenografts; D425Med, mice with regression/group, sustained for 100 days",0/5
same,Inhibition of PARP-1 activity,PARP-1; 0.1 μM AG-014699,80%
same,Inhibition of PARP-1 activity,PARP-1; 0.4 μM AG-014699,> 95%
same,inhibition at 0.1 µM,"PARP-1; D283 Med, 0.1 μM AG-014699",81.1%
same,inhibition at 0.4 µM,"PARP-1; D283 Med, 0.4 μM AG-014699",96.8%
same,inhibition at 1 µM,"PARP-1; D283 Med, 1 μM AG-014699",97.1%
same,Median nadir body weight (% starting weight),"D384Med xenografts; D384Med-bearing mice, daily x5, TMZ 68 mg kg−1 p.o., AG-014699 1 mg kg−1 i.p.",96 % starting weight
same,Median time to RTV4,"D384Med xenografts; D384Med, daily x5, TMZ 68 mg kg−1 p.o., AG-014699 1 mg kg−1 i.p.",20 days
same,Complete regressions,"D384Med xenografts; D384Med, mice with regression/group, transient",0/5
same,Tumour growth delay,"D384Med xenografts; D384Med, versus control time to RTV4",4 days
